One experiment deals with ob/ob and db/db mice. To be noted: following 8 weeks of administration; cited from earlier work.
In experiment [1] the target is T1, recombinant human AMPK complex 1 (containing α1β1γ1) (Homo sapiens, UniProt Q13131+Q9Y478).
T1 construct: made in house; host or cells: Spodoptera frugiperda Sf21 cells, baculovirus, triple infection (one virus per subunit)
In words: In vitro AMPK activation assay (AMPKSAMSF), complex 1. It is filed as biochemical. To be noted: recombinant human AMPK complex 1 (α1β1γ1); for % Maximum AMP Activation of human AMPK Complex 1: 10-point titration expressed as % maximum AMP activation; for EC50: inflection point reflecting 50% of the maximum activation. The procedure: (§1) The recombinant human AMPK complex 1 (containing α1β1γ1) or AMPK complex 7 (containing α2β1γ1) was obtained from baculovirus expression system. Recombinant viruses were generated by cotransfection of AMPK/pBacPak9 clones with Baculogold baculovirus DNA (Pharmingen) in spodoptera frugiperda 21 cells according to the manufacturer's instructions. Each round of virus amplification was performed for 5 days in Grace's medium containing 10% serum. Virus that had been subjected to three rounds of amplification was used for all protein production procedures. To express the AMPK complex, sf21 cells were adapted to serum free medium (SF900 II, Invitrogen) by sequential dilution from serum containing stocks into SF900II medium and maintained in shaker flasks at 90 rpm at 27° C. The recombinant AMPK enzyme complex was produced by triple infection, one recombinant virus for each of the subunits, in sf21 cells under serum free conditions. Cells were infected in log phase, 1×10^6 cells/ml, at a multiplicity of infection of ˜5. Cells were harvested by centrifugation at 10,000×g for 15 minutes after 72 hours of infection with viruses. The insect cell pellet from 2 liters of culture was resuspended in 50 ml lysis buffer (20 mM Tris-HCl, 50 mM NaCl, 50 mM NaF, 30 mM Na PPi, 0.25 M sucrose, 10 mM ZnCl2, 2 mM DTT, 0.4 mg/ml digitonin) and subjected to two cycles of freeze-thaw lysis in a dry-ice ethanol bath. Insoluble material was removed by centrifugation at 10,000×g and the supernatant was fractionated with use of polyethylene glycol (PEG). The protein fraction precipitating between 2.5 and 6% PEG was used for further purification using a Blue-Sepharose step (Zhou et al, J. Clin. Invest. 108, 1167-1174, 2001).
(§2) The in vitro AMPK activation assay is performed in a volume of 30 μl in a 384-well plate. Enzyme reactions were assembled in the microtiter plate by adding 15 μl of 2× enzyme in assay buffer (20 mM HEPES, pH 7.3, 5 mM MgCl2, 3 mM DTT, 0.01% Brij 35 and CamK Kinase, to activate AMPK) to wells which contained either DMSO or compound. The reaction was initiated with the addition of 15 μl 2× substrate mixture containing 200 μM ATP, and 3.0 μM fluorescently labeled SAMS (5-FAM-HMRSAMSGLHLVKRR-COOH) in assay buffer. After 45-minute incubation at 25° C., the reaction was stopped by the addition of 70 μl stop buffer (100 mM HEPES, pH 7.3, 40 mM EDTA, 0.015% Brij 35). Phosphorylated 5-FAM SAMS product is assessed using a Caliper EZ Reader LabChip microfluidics reader. Product conversion is determined by calculating the peak heights of the substrate and product and reporting the product/(product+substrate) peak ratio. The 10-point titration data were expressed as % maximum AMP activation. The results were plotted using 4 parameter fit and the inflection point reflecting 50% of the maximum activation was reported as the EC50.

The target of experiment [2] is T2, recombinant human AMPK complex 7 (containing α2β1γ1) (Homo sapiens, UniProt P54646+Q9Y478).
T2 construct: made in house; host or cells: Spodoptera frugiperda Sf21 cells, baculovirus, triple infection (one virus per subunit)
In words: In vitro AMPK activation assay (AMPKSAMSF), complex 7. The conditions noted are these: recombinant human AMPK complex 7 (α2β1γ1); for Emax: 10-point titration expressed as % maximum AMP activation; for EC50: inflection point reflecting 50% of the maximum activation. It is filed as biochemical. As for the experimental part:
as §1, §2

T2 sequence (P54646 whole entry): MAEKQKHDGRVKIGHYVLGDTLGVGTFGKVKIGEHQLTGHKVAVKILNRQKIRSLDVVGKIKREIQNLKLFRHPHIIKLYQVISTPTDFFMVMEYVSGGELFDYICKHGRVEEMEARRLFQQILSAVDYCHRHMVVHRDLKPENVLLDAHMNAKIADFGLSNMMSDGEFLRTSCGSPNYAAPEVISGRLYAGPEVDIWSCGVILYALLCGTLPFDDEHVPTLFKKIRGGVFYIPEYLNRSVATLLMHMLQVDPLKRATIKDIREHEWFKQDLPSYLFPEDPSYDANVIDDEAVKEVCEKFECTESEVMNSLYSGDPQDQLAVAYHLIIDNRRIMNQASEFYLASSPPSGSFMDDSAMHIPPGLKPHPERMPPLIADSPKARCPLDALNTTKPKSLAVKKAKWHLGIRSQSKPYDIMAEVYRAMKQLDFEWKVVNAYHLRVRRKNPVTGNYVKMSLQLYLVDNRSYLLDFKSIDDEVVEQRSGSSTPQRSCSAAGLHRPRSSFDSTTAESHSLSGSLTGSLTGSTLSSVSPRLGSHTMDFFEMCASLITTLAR
T2 sequence (Q9Y478 whole entry): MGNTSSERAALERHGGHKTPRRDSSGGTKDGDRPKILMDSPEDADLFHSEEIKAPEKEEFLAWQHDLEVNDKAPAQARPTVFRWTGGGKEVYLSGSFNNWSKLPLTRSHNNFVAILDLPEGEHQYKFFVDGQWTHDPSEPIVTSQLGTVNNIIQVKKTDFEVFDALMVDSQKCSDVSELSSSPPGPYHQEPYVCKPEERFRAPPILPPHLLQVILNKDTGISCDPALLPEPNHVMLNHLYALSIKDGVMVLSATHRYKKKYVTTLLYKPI
T2 sequence (P54619 whole entry partner): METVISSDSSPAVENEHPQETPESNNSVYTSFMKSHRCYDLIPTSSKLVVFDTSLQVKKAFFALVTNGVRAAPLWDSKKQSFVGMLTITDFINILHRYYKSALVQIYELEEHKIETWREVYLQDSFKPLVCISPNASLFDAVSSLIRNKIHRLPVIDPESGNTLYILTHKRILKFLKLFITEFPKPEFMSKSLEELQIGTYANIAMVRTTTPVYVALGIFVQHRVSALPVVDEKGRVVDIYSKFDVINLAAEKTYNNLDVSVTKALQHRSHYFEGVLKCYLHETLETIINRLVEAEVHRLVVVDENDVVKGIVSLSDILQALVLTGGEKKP
T1 sequence (Q13131 whole entry): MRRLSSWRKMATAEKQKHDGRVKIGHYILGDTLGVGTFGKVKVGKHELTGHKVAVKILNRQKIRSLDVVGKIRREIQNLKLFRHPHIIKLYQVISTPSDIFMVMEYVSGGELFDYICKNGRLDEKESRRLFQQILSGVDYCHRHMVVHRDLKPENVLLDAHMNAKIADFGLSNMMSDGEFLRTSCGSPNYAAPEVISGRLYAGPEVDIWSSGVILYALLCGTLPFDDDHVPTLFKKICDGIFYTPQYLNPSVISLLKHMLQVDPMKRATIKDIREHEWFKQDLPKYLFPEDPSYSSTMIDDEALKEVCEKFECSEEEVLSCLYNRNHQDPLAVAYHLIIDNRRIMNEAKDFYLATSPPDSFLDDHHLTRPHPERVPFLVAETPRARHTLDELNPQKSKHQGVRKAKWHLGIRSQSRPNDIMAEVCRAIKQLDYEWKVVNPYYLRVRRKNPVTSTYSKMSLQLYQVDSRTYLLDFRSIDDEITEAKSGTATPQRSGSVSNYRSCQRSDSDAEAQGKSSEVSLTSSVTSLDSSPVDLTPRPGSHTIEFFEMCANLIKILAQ
T1 sequence (Q9Y478 whole entry): as the sequence (Q9Y478 whole entry) above
T1 sequence (P54619 whole entry partner): as the sequence (P54619 whole entry partner) above

In the case of `NC(=O)c1ncn([C@@H]2O[C@H](CO)[C@@H](O)[C@H]2O)c1N` [AICAR], in the experiment on ob/ob and db/db mice, the blood glucose reduction is 35%. Broadly, the EC50 is the concentration needed to bring the measured effect to its halfway point. With `O[C@@H]1CO[C@H]2[C@@H]1OC[C@H]2Oc1nc2c(F)c(-c3ccc(-c4ccccc4)cc3)c(F)cc2[nH]1` [Example 1, (3R,3aR,6R,6aR)-6-((5-([1,1′-biphenyl]-4-yl)-4,6-difluoro-1H-benzo[d]imidazol-2-yl)oxy)hexahydrofuro[3,2-b]furan-3-ol], in experiment [1], the “% Maximum AMP Activation of human AMPK Complex 1” value (“% Maximum AMP Activation” for short) amounted to 636% and the EC50 turned out to be 51 nM. The like results for `CS(=O)(=O)c1ccc(-c2ccc(-c3cc4nc(O[C@@H]5CO[C@H]6[C@@H]5OC[C@H]6O)[nH]c4cc3Cl)cc2)cc1` [Example 6] were, in that order, 367% and 14 nM. The like results for `O[C@@H]1CO[C@H]2[C@@H]1OC[C@H]2Oc1nc2cc(-c3ccc(-c4ccccc4)cc3)c(Cl)cc2[nH]1` [Example 8] were, in that order, 368% and 32 nM. On the same counts, the results for `CC(C)(O)c1ccc(-c2ccc(-c3c(F)cc4[nH]c(O[C@@H]5CO[C@H]6[C@@H]5OC[C@H]6O)nc4c3F)cc2)cc1` [Example 15] are 416% and 18 nM. For `OCc1ccc(-c2ccc(-c3c(F)cc4[nH]c(O[C@H]5COC6C5OC[C@@H]6O)nc4c3F)cc2)cc1` (stereo partly drawn) [Example 18, (3S,6S)-6-((4,6-difluoro-5-(4′-(hydroxymethyl)-[1,1′-biphenyl]-4-yl)-1H-benzo[d]imidazol-2-yl)oxy)hexahydrofuro[3,2-b]furan-3-ol], in experiment [1], the “% Maximum AMP Activation” value came to 314% and the EC50 stood at 6 nM. Turning to `O=C(c1ccc(-c2ccc(-c3c(F)cc4[nH]c(O[C@H]5COC6C5OC[C@@H]6O)nc4c3F)cc2)cc1)N1CC[C@@H](O)C1` (stereo partly drawn) [Example 19, (4′-(4,6-difluoro-2-(((3S,6S)-6-hydroxyhexahydrofuro[3,2-b]furan-3-yl)oxy)-1H-benzo[d]imidazol-5-yl)-[1,1′-biphenyl]-4-yl)((R)-3-hydroxypyrrolidin-1-yl)methanone], in experiment [1], the “% Maximum AMP Activation” value is 232% and the EC50 is 35 nM.

As a reminder, the Emax is the greatest response seen or fitted, relative to the assay's reference. As for `O=C(O)C1CC1c1ccc(-c2ccc(-c3c(F)cc4[nH]c(O[C@@H]5CO[C@H]6[C@@H]5OC[C@H]6O)nc4c3F)cc2)cc1` (stereo partly drawn) [Example 26], in experiment [2], the Emax worked out at 350% and the EC50 came out at 5 nM. Consider `CC(CO)(CO)c1ccc(-c2ccc(-c3c(F)cc4[nH]c(O[C@@H]5CO[C@H]6[C@@H]5OC[C@H]6O)nc4c3F)cc2)cc1` [Example 33], for which, in experiment [2], the Emax worked out at 316% and the EC50 came to 5 nM.

For the molecule `O[C@@H]1CO[C@H]2[C@@H]1OC[C@H]2Oc1nc2c(F)c(-c3ccc(-c4ccc(C5CNCCO5)cc4)cc3)c(F)cc2[nH]1` (stereo partly drawn) [Example 34], in experiment [2], the Emax was 263% and the EC50 was determined as 5 nM. Take `O=C1NCCC1c1ccc(-c2ccc(-c3c(F)cc4[nH]c(O[C@@H]5CO[C@H]6[C@@H]5OC[C@H]6O)nc4c3F)cc2)cc1` (stereo partly drawn) [Example 40]: in experiment [2], the maximal response (Emax) was 364% and the half-maximal effective concentration (EC50) was found to be 5 nM.

With `Oc1ccnc(-c2ccc(-c3ccc(-c4c(F)cc5[nH]c(O[C@@H]6CO[C@H]7[C@@H]6OC[C@H]7O)nc5c4F)cc3)cc2)n1` [Example 41], in experiment [2], the Emax was 380% and the EC50 came out at 3 nM. On to `O[C@@H]1CO[C@H]2[C@@H]1OC[C@H]2Oc1nc2c(F)c(-c3ccc(-c4ccc(-n5ccnn5)cc4)cc3)c(F)cc2[nH]1` [Example 43], for which, in experiment [2], the Emax came out at 341% and the EC50 came to 3 nM. For `CNC(=O)c1ccc(-c2ccc(-c3c(F)cc4[nH]c(O[C@@H]5CO[C@H]6[C@@H]5OC[C@H]6O)nc4c3F)cc2)cc1` [Example 46], in experiment [2], the Emax is 364% and the EC50 was 2 nM. On to `N=c1nc(N)[nH]n1-c1ccc(-c2ccc(-c3c(F)cc4[nH]c(O[C@@H]5CO[C@H]6[C@@H]5OC[C@H]6O)nc4c3F)cc2)cc1` [Example 47], for which, in experiment [2], the Emax was 348% and the EC50 turned out to be 4 nM.

Turning to `O=C(O)C1CC1c1ccc(-c2ccc(-c3cc4nc(O[C@@H]5CO[C@H]6[C@@H]5OC[C@H]6O)[nH]c4cc3Cl)cc2)cc1` (stereo partly drawn) [Example 57], in experiment [2], the Emax came to 356% and the EC50 came to 8 nM. On the same counts, the results for `O[C@@H]1CO[C@H]2[C@@H]1OC[C@H]2Oc1nc2cc(-c3ccc(-c4ccc(C5CNCCO5)cc4)cc3)c(Cl)cc2[nH]1` (stereo partly drawn) [Example 67] are 324% and 4 nM. Take `Oc1ccnc(-c2ccc(-c3ccc(-c4cc5nc(O[C@@H]6CO[C@H]7[C@@H]6OC[C@H]7O)[nH]c5cc4Cl)cc3)cc2)n1` [Example 68]: in experiment [2], the Emax worked out at 344% and the EC50 came to 3 nM. For `O=c1ncn(-c2ccc(-c3ccc(-c4cc5nc(O[C@@H]6CO[C@H]7[C@@H]6OC[C@H]7O)[nH]c5cc4Cl)cc3)cc2)[nH]1` [Example 69], in experiment [2], the Emax turned out to be 359% and the EC50 is 2 nM. `CC(CO)(CO)c1ccc(-c2ccc(-c3cc4nc(O[C@@H]5CO[C@H]6[C@@H]5OC[C@H]6O)[nH]c4cc3Cl)cc2)cc1` [Example 71]: in experiment [2], the Emax was 352% and the EC50 is 5 nM. For `O[C@@H]1CO[C@H]2[C@@H]1OC[C@H]2Oc1nc2cc(-c3ccc(-c4ccc(-n5ccnn5)cc4)cc3)c(Cl)cc2[nH]1` [Example 73], in experiment [2], the Emax was found to be 384% and the EC50 stood at 7 nM. The like results for `O[C@@H]1CO[C@H]2[C@@H]1OC[C@H]2Oc1nc2cc(-c3ccc(-c4ccc(-n5cccn5)cc4)cc3)c(Cl)cc2[nH]1` [Example 74] were, in that order, 369% and 16 nM. As for `CNC(=O)c1ccc(-c2ccc(-c3cc4nc(O[C@@H]5CO[C@H]6[C@@H]5OC[C@H]6O)[nH]c4cc3Cl)cc2)cc1` [Example 76], in experiment [2], the Emax is 386% and the EC50 came to 5 nM. Turning to `N=c1nc(N)[nH]n1-c1ccc(-c2ccc(-c3cc4nc(O[C@@H]5CO[C@H]6[C@@H]5OC[C@H]6O)[nH]c4cc3Cl)cc2)cc1` [Example 77], in experiment [2], the Emax is 368% and the EC50 amounted to 8 nM.

As for `O=S(=O)(c1ccc(-c2ccc(-c3cc4nc(O[C@@H]5CO[C@H]6[C@@H]5OC[C@H]6O)[nH]c4cc3Cl)cc2)cc1)C1CCNCC1` [Example 79], in experiment [2], the Emax is 381% and the 50% effective concentration (EC50) amounted to 9 nM.

`O=C1NCCC1c1ccc(-c2ccc(-c3cc4nc(O[C@@H]5CO[C@H]6[C@@H]5OC[C@H]6O)[nH]c4cc3Cl)cc2)cc1` (stereo partly drawn) [Example 83]: in experiment [2], the Emax came out at 365% and the EC50 is 5 nM.
